Results taken from patent US10759816B2, “Heterocyclic compounds as RSV inhibitors” (Enanta Pharmaceuticals, Inc., priority 2016, dated 2020).
Like-named read-outs stand apart in the source and are kept apart here.

Test system: genotype A, "Long" strain RSV
Test: RSV-A in vitro cytoprotection assay in HEp-2 cells (ATPlite readout of cell viability)
Assay type: cell-based, Human respiratory syncytial virus
Conditions: human respiratory syncytial virus
Outline: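 HEp-2 cells (8,000/well) given 2-fold compound dilutions in duplicate, then infected with RSV-A Long strain stock; viability read by ATPlite luminescence after 4 days. EC50 derived from cytoprotection; cytotoxicity measured on parallel uninfected plate.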

[1] = HEp-2, HEp-2 cells, genotype A “Long” strain RSV, cytoprotection, read-out: Human RSV-A (“Long” strain) EC50

Row | SMILES | EC50 [1] | EC50 (HEp-2, read-out: Human RSV-A (“Long” strain) EC50)
1 | Cc1cccc(F)c1NC(=O)c1cc2c(s1)-c1ccccc1N(C(=O)c1cccc(-c3cn(CCN(C)C)nc3C3CC3)n1)CC2 [Example 228] | > 800 nM | –
2 | Cc1cccc(F)c1NC(=O)c1cc2c(s1)-c1ccccc1N(C(=O)c1cccc(-c3cnn(CCN(C)C)c3C3CC3)n1)CC2 [Example 229] | > 800 nM | –
3 | Cc1cccc(F)c1NC(=O)c1cc2c(s1)-c1ccccc1N(C(=O)c1cccc(-c3cn(CC(N)=O)nc3C3CC3)n1)CC2 [Example 230] | > 800 nM | –
4 | Cc1cccc(F)c1NC(=O)c1cc2c(s1)-c1ccccc1N(C(=O)c1cccc(-c3cn(CS(C)(=O)=O)nc3C3CC3)n1)CC2 [Example 231] | > 800 nM | –
5 | Cc1cccc(F)c1NC(=O)c1cc2c(s1)-c1ccccc1N(C(=O)c1cccc(-c3cnn(Cc4ccccc4)c3-c3ccccn3)n1)CC2 [Example 232] | > 800 nM | –
6 | Cc1cccc(F)c1NC(=O)c1cc2c(s1)-c1ccccc1N(C(=O)c1cccc(-c3cncn3C3CC3)n1)CC2 [Example 233] | < 400 nM | –
7 | Cc1cc(-c2cccc(C(=O)N3CCc4cc(C(=O)Nc5c(C)cccc5F)sc4-c4ccccc43)n2)n(C)n1 [Example 234] | < 400 nM | –
8 | Cc1cccc(F)c1NC(=O)c1cc2c(s1)-c1ccccc1N(C(=O)c1cccc(-c3ccn(C)n3)n1)CC2 [Example 235] | > 800 nM | –
9 | Cc1cccc(F)c1NC(=O)c1cc2c(s1)-c1ccccc1N(C(=O)c1cccc(-c3ccnn3C(C)C)n1)CC2 [Example 236] | < 400 nM | –
10 | Cc1cccc(F)c1NC(=O)c1cc2c(s1)-c1ccccc1N(C(=O)c1cccc(-c3ccnn3C)n1)CC2 [Example 237] | < 400 nM | –
11 | CCn1nccc1-c1cccc(C(=O)N2CCc3cc(C(=O)Nc4c(C)cccc4F)sc3-c3ccccc32)n1 [Example 238] | < 400 nM | –
12 | Cc1cc(-c2cccc(C(=O)N3CCc4cc(C(=O)Nc5ccccc5N)sc4-c4ccccc43)n2)n(C)n1 [Example 239] | > 800 nM | –
13 | Cn1ccc(-c2cccc(C(=O)N3CCc4cc(C(=O)Nc5ccccc5N)sc4-c4ccccc43)n2)n1 [Example 240] | > 800 nM | –
14 | CC(C)n1nccc1-c1cccc(C(=O)N2CCc3cc(C(=O)Nc4ccccc4N)sc3-c3ccccc32)n1 [Example 241] | < 400 nM | –
15 | Cn1nccc1-c1cccc(C(=O)N2CCc3cc(C(=O)Nc4ccccc4N)sc3-c3ccccc32)n1 [Example 242] | < 400 nM | –
16 | Cc1cccc(F)c1NC(=O)c1cc2c(s1)-c1ccccc1N(C(=O)c1cccc(-c3c[nH]c4ncccc34)n1)CC2 [Example 243] | < 400 nM | –
17 | Cc1cccc(F)c1NC(=O)c1cc2c(s1)-c1ccccc1N(C(=O)c1cccc(-c3cnn4ccccc34)n1)CC2 [Example 244] | < 400 nM | –
18 | Cc1cnc2[nH]cc(-c3cccc(C(=O)N4CCc5cc(C(=O)Nc6c(C)cccc6F)sc5-c5ccccc54)n3)c2c1 [Example 245] | < 400 nM | –
19 | Cc1ccc2c(-c3cccc(C(=O)N4CCc5cc(C(=O)Nc6c(C)cccc6F)sc5-c5ccccc54)n3)cn(C(=O)OC(C)(C)C)c2c1 [Example 246] | > 800 nM | –
20 | Cc1ccc2c(-c3cccc(C(=O)N4CCc5cc(C(=O)Nc6c(C)cccc6F)sc5-c5ccccc54)n3)c[nH]c2c1 [Example 247] | < 400 nM | –
21 | Cc1cccc(F)c1NC(=O)c1cc2c(s1)-c1ccccc1N(C(=O)c1cccc(-c3cn(C(=O)OC(C)(C)C)c4ccc(Cl)cc34)n1)CC2 [Example 248] | > 800 nM | –
22 | Cc1cccc(F)c1NC(=O)c1cc2c(s1)-c1ccccc1N(C(=O)c1cccc(-c3c[nH]c4ccc(Cl)cc34)n1)CC2 [Example 249] | < 400 nM | –
23 | Cc1cccc(F)c1NC(=O)c1cc2c(s1)-c1ccccc1N(C(=O)c1cccc(-c3cn(C(=O)OC(C)(C)C)c4c(Cl)cccc34)n1)CC2 [Example 250] | 400 to 800 nM | –

Row | SMILES | EC50 [1] | EC50 (HEp-2, read-out: Human RSV-A (“Long” strain) EC50)
24 | Cc1cccc(F)c1NC(=O)c1cc2c(s1)-c1ccccc1N(C(=O)c1cccc(-c3c[nH]c4c(Cl)cccc34)n1)CC2 [Example 251] | < 400 nM | –
25 | Cc1cccc(F)c1NC(=O)c1cc2c(s1)-c1ccccc1N(C(=O)c1cccc(-c3cn(C(=O)OC(C)(C)C)c4c(C)cccc34)n1)CC2 [Example 252] | > 800 nM | –
26 | Cc1cccc(F)c1NC(=O)c1cc2c(s1)-c1ccccc1N(C(=O)c1cccc(-c3c[nH]c4c(C)cccc34)n1)CC2 [Example 253] | < 400 nM | –
27 | Cc1ccc2c(c1)c(-c1cccc(C(=O)N3CCc4cc(C(=O)Nc5c(C)cccc5F)sc4-c4ccccc43)n1)cn2[Si](C)(C)C(C)(C)C [Example 254] | – | > 800 nM
28 | Cc1ccc2[nH]cc(-c3cccc(C(=O)N4CCc5cc(C(=O)Nc6c(C)cccc6F)sc5-c5ccccc54)n3)c2c1 [Example 255] | 400 to 800 nM | –
29 | Cc1cccc(F)c1NC(=O)c1cc2c(s1)-c1ccccc1N(C(=O)c1cccc(-c3coc4ccccc34)n1)CC2 [Example 256] | < 400 nM | –
30 | Cc1cccc(F)c1NC(=O)c1cc2c(s1)-c1ccccc1N(C(=O)c1cccc(-c3coc4cccnc34)n1)CC2 [Example 257] | > 800 nM | –
31 | Cc1cccc(F)c1NC(=O)c1cc2c(s1)-c1ccccc1N(C(=O)c1cccc(-c3coc4ccncc34)n1)CC2 [Example 258] | > 800 nM | –
32 | Cc1cccc(F)c1NC(=O)c1cc2c(s1)-c1cccc(F)c1N(C(=O)c1cccc(-c3c[nH]c4ncccc34)n1)CC2 [Example 259] | < 400 nM | –
33 | Cc1cccc(F)c1NC(=O)c1cc2c(s1)-c1ccccc1N(C(=O)c1cccc(-c3conc3C)n1)CC2 [Example 261] | < 400 nM | –
34 | Cc1cccc(F)c1NC(=O)c1cc2c(s1)-c1ccccc1N(C(=O)c1cccc(-c3cnoc3C)n1)CC2 [Example 262] | > 800 nM | –
35 | Cc1cccc(F)c1NC(=O)c1cc2c(s1)-c1cc(F)ccc1N(C(=O)c1cccc(-c3c[nH]nc3C3CC3)n1)CC2 [Example 263] | < 400 nM | –
36 | COc1ccc(-c2cccc(C(=O)N3CCc4cc(C(=O)Nc5c(C)cccc5F)sc4-c4ccccc43)n2)cn1 [Example 264] | > 800 nM | –
37 | Cc1cccc(F)c1NC(=O)c1cc2c(s1)-c1ccccc1N(C(=O)c1cccc(-c3c[nH]nc3/C=C/c3ccccc3)n1)CC2 [Example 265] | > 800 nM | –
38 | Cc1cccc(F)c1NC(=O)c1cc2c(s1)-c1ccccc1N(C(=O)c1ccc(-c3c[nH]c4ncccc34)cc1)CC2 [Example 266] | > 800 nM | –
39 | COC(=O)n1cc(-c2ccc(C(=O)N3CCc4cc(C(=O)Nc5c(C)cccc5F)sc4-c4ccccc43)cc2)c2cccnc21 [Example 267] | > 800 nM | –
40 | Cc1cccc(F)c1NC(=O)c1cc2c(s1)-c1ccccc1N(C(=O)c1ccc(-c3cn(S(C)(=O)=O)c4ncccc34)cc1)CC2 [Example 268] | > 800 nM | –
41 | Cc1cccc(F)c1NC(=O)c1cc2c(s1)-c1ccccc1N(C(=O)c1ccc(-c3c[nH]nc3C)cc1)CC2 [Example 269] | > 800 nM | –
42 | Cc1cc(-c2ccc(C(=O)N3CCc4cc(C(=O)Nc5c(C)cccc5F)sc4-c4ccccc43)cc2)n[nH]1 [Example 270] | > 800 nM | –
43 | Cc1cc(-c2ccc(C(=O)N3CCc4cc(C(=O)Nc5c(C)cccc5F)sc4-c4ccccc43)cc2)n(S(C)(=O)=O)n1 [Example 271] | > 800 nM | –
44 | Cc1cccc(F)c1NC(=O)c1cc2c(s1)-c1ccccc1N(C(=O)c1ccc(-c3c[nH]c4ccccc34)cc1)CC2 [Example 272] | > 800 nM | –
45 | CCn1nccc1-c1cccc(C(=O)N2CCc3cc(C(=O)Nc4c(C)cccc4F)oc3-c3ccccc32)n1 [Example 273] | > 800 nM | –
46 | Cc1cccc(F)c1NC(=O)c1cc2c(o1)-c1ccccc1N(C(=O)c1cccc(-c3c[nH]c4ncccc34)n1)CC2 [Example 274] | < 400 nM | –
